Results on 1 compound are retold here after patent EP2064211B1, “IMIDAZO[1,2-A]PYRIDINE HYDROXYMATE COMPOUNDS THAT ARE INHIBITORS OF HISTONE DEACETYLASE” (MEI Pharma, Inc., priority 2006, dated 2008).

Series [1] can be described thus: High Throughput Solubility Profiling (HTSP), kinetic solubility. The format is physicochemical. The settings on record: phosphate buffer with 2.5% DMSO, aqueous buffer, kinetic from dmso stock, phosphate buffer (pH 7), final concentration 250 µM. The procedure: Determining compound aqueous solubility has become an essential early measurement in the drug discovery process. Poor aqueous solubility can cause problems in many in vitro testing techniques, leading to unreliable results. The standard way to determine the solubility of a compound is to use the shake-flask solubility method. However, this method is inherently low-throughput and labour intensive.
10mM compound stock in DMSO was dissolved in phosphate buffer (pH 7) to give a final concentration of 250µM in 96-well plates in triplicate. The plate was shaken for 1.5 hours at 450 rpm and left to stand for 2 hours to allow the compound to reach its saturation point. The plate was then centrifuged at 2000g for 15 minutes. The supernatant was transferred and mixed with 20µL of DMSO in another 96-well plate. A calibration curve at 100µM and 250µM was prepared from the 10mM stock by dissolving in 60% methanol/phosphate buffer solution. LC/MS was used in the analysis and the area counts were obtained by using the Quantify Method Editor. Using the three point standard curve including zero, the results for solubility were reported. […]

Another series deals with T1, HDAC1 enzyme (Homo sapiens, UniProt Q13547).
T1 construct: Amplification of human HDAC1 coding region from this cDNA library was cloned separately into the baculovirus expression pDEST20 vector; made in house; host or cells: SF9 insect cells (baculovirus, pDEST20 vector)
The series can be described thus: In vitro HDAC assay for determination of IC50 values (BIOMOL fluorescent-based HDAC activity assay). The format is biochemical. The settings on record: recombinant GST-HDAC1, 500 uM Flur de lys substrate, room temperature 2 h; read-out: IC50 (HDAC 1).

The nature of series [2]: Measurement of microsomal stability. Format: in vitro ADME. The settings on record: pooled human liver microsomes 1.0 mg/ml, test compound 5 µM, pH 7.4, incubation up to 60 min. The procedure:
Metabolic stability measurements in vitro using liver microsomes aids in the prediction of in vivo hepatic clearance and compound stability towards phase I biotransformation reactions mediated by P450 isozymes.
Pooled human liver microsome (HLM) preparation was purchased from BD Gentest (BD BioSciences). The incubations consisted of test compound (5 µM) or control compound (Verapamil), NADPH-generating system solution A (25 mM NADP^+, 66 mM glucose-6-phosphate, 66 mM MgCl2 in H2O), NADPH-generating system solution B (40 U/ml glucose-6-phosphate dehydrogenase in 5 mM sodium citrate) and 1.0 mg/ml microsomal protein, respectively, in 100 mM potassium phosphate buffer (pH 7.4). Samples are incubated for 0, 5, 15, 30, 45, 60min. Reaction is terminated with ice-cold 80% acetonitrile and 20% DMSO. Samples are subsequently centrifuged at 4°C for 15 min at 2,000 rpm. 100 µL of the supernatant is transferred to the LC-MS plate for analysis. Before quantitative analysis, the compound is tuned in the LC/MS machine to get the optimized MS condition. Liquid chromatography is performed on a Luna C18 column (Phenomenex U.S.A, Torrance, CA) (2x50mm, […]). Percentage (%) remaining of compound (by area) of each time point is calculated with respect to time 0. Plot %remaining against time (min) to obtain the curve and use the Prism software to obtain the T1/2. […]
A general note: Microsomes from liver hold many membrane-bound enzymes, among them those of drug oxidation.

In a further series the test system is Colo205 cells. The series can be described thus: Cell-based proliferation assay for determination of GI50 values (CyQUANT). The arrangement: species or system Human. The settings on record: Homo sapiens, COLO 205, compound treatment 96 h, concentration for 50% inhibition of cell growth, read-out: Gl50 (Colo205).

In brackets after ≈: the same amount, converted by molar mass.

T1 sequence (Q13547 whole entry): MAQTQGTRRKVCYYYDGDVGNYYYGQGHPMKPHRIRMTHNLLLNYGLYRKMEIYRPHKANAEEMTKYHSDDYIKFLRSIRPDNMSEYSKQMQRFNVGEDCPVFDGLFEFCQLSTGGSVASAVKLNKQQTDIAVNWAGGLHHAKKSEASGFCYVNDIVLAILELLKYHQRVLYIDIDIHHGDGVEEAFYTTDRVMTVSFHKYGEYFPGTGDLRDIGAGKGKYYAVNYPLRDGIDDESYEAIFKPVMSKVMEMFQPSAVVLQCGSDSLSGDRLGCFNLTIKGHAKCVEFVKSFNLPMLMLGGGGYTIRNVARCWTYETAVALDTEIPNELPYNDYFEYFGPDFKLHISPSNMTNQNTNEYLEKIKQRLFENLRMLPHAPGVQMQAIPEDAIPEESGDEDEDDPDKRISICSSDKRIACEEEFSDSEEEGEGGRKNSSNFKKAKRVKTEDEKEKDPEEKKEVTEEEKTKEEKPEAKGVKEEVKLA

In series [1], `CCCc1nc2cc(C=CC(=O)NO)ccn2c1CNC(C)(C)C` [Compound 48, 3-[3-(tert-Butylamino-methyl)-2-propyl-imidazo[1,2-a]pyridin-7-yl]-N-hydroxy-acrylamide] registered a solubility of 168 µM (≈ 55.5 µg/mL). Moreover, the IC50 on HDAC1 enzyme turned out to be 40 nM; in the series on Colo205 cells, 180 nM. The half-life at 5 µM in series [2] is above 1 h.

As a reminder, the solubility is the concentration that dissolves in the medium under given conditions. The low end stands for a poorly soluble substance, the high end for a readily soluble substance. Usually half-life stands for the time needed for the level to fall by half in the phase considered. Higher therefore signals slow decline.
